This is an account of results in US20070238727A1, “5-Substituted 1-Phenyl-1,5-Dihydro-Pyrido[3,2-B]Indol-2-Ones and Analogs as Anti-Virals” (Tibotec BVBA, priority 2004, published 2007).

As usually defined, the pEC50 is the EC50 on a negative log10 scale, so that one unit is a factor of ten. The low end stands for a large EC50, the high end for a small EC50.

pEC50: −log10 of the molar value.

The target of the first experiment is T1, HIV reverse transcriptase (Human immunodeficiency virus type 1 group M subtype B, UniProt P04585).
T1 construct: 5 μl HIV RT enzyme solution at a final enzyme activity of 15 mU per 50 μl reaction; purchased Amersham Life Sciences TRK 1022
Nature of the experiment: In vitro inhibition of HIV reverse transcriptase (kit TRK 1022, 3H-TTP). In kind it is biochemical. The conditions noted are these: HIV RT enzyme, 4 hours at 37° C., no conversion to active metabolite needed. On the procedure: The assay was run using kit TRK 1022 (Amersham Life Sciences) according to the manufacturer's instructions with slight modifications. Test compounds were diluted in steps of 1/4 in 100% DMSO and subsequently transferred to Medium A (1/50 dilution; medium A: RPMI 1640+10% FetalClone 1+Gentamycin 20 mg/L). 25 μl of compound (in 2% DMSO in Medium A) or 25 μl of 2% DMSO in medium A was added to wells. To each well was added 25.5 μl master mix (master mix: 5 μl primer/template beads, 10 μl assay buffer, 0.5 μl tracer (3H-TTP), 5 μl HIV RT enzyme solution at a final enzyme activity of 15 mU per 50 μl reaction, 5 μl medium A). The plates were sealed, marked as radioactive and incubated during 4 hours at 37° C. Subsequently, 100 μl stop solution was added to each well (except R1). The radioactivity was counted in a TopCount.
On to `N#Cc1cc2c(c3ccccc3n2CC(O)CN2CCCC2)n(-c2ccc([N+](=O)[O-])cc2)c1=O` (stereo not drawn) [Compound 2, 5-(2-Hydroxy-3-pyrrolidin-1-yl-propyl)-1-(4-nitro-phenyl)-2-oxo-2,5-dihydro-1H-pyrido[3,2-b]indole-3-carbonitrile], for which the “inhibition of HIV reverse transcriptase in vitro” value is “inhibit IV reverse transcriptase in vitro”.

In the next experiment the test system is HIV. Briefly: Cellular assay: anti-viral activity in HIV-infected MT4 cells (MTT). Format: cell-based. The conditions noted are these: Human immunodeficiency virus 1, 120 h, five days incubation, negative logarithm of EC50. On the procedure:
Compounds of the present invention were examined for anti-viral activity in a cellular assay, which was performed according to the following procedure.
HIV- or mock-infected MT4 cells were incubated for five days in the presence of various concentrations of the inhibitor. At the end of the incubation period, the replicating virus in the control cultures has killed all HIV-infected cells in the absence of any inhibitor. Cell viability was determined by measuring the concentration of MTT, a yellow, water soluble tetrazolium dye that is converted to a purple, water insoluble formazan in the mitochondria of living cells only. Upon solubilization of the resulting formazan crystals with isopropanol, the absorbance of the solution was monitored at 540 nm. The values correlate directly to the number of living cells remaining in the culture at the completion of the five day incubation. The inhibitory activity of the compound was monitored on the virus-infected cells and was expressed as EC50 and EC90. These values represent the amount of the compound required to protect 50% and 90%, respectively, of the cells from the cytopathogenic effect of the virus. The toxicity of the compound was measured on the mock-infected cells and was expressed as CC50, which represents the concentration of compound required to inhibit the growth of the cells by 50%. The selectivity index (SI) (ratio CC50/EC50) is an indication of the selectivity of the anti-HIV activity of the inhibitor. Wherever results are reported as e.g. pEC50 or pCC50 values, the result is expressed as the negative logarithm of the result expressed as EC50 or CC50 respectively.
`N#Cc1cc2c(c3ccccc3n2CC(O)CN2CCCC2)n(-c2ccc([N+](=O)[O-])cc2)c1=O` (stereo not drawn) [Compound 2, 5-(2-Hydroxy-3-pyrrolidin-1-yl-propyl)-1-(4-nitro-phenyl)-2-oxo-2,5-dihydro-1H-pyrido[3,2-b]indole-3-carbonitrile] showed a pEC50 of 6.60.
The same measure, in the same setting: under `COCCOCCn1c2ccccc2c2c1cc(C#N)c(=O)n2-c1ccc([N+](=O)[O-])cc1` [Compound 4, 5-[2-(2-Methoxy-ethoxy)-ethyl]-1-(4-nitro-phenyl)-2-oxo-2,5-dihydro-1H-pyrido-[3,2-b]indole-3-carbonitrile] stands 6.50.
Same read-out and setting: next, `N#Cc1cc2c(c3ccccc3n2CC(O)CN2CCSCC2)n(-c2ccc([N+](=O)[O-])cc2)c1=O` (stereo not drawn) [Compound 9]: 6.10; `COCCOCCOCCn1c2ccccc2c2c1cc(C#N)c(=O)n2-c1ccc([N+](=O)[O-])cc1` [Compound 11]: 5.80; `COC(Cn1c2ccccc2c2c1cc(C#N)c(=O)n2-c1ccc([N+](=O)[O-])cc1)C[N+](C)(C)C` (stereo not drawn) [Compound 13]: 4.80.
Same read-out and setting: under `CC(=O)OC(CN1CCCC1)Cn1c2ccccc2c2c1cc(C#N)c(=O)n2-c1ccc([N+](=O)[O-])cc1` (stereo not drawn) [Compound 21] stands 6.30.
The molecule `N#Cc1cc2c(c3ccccc3n2CCCONC(=N)N)n(-c2ccc([N+](=O)[O-])cc2)c1=O` [Compound 25] showed a pEC50 of 4.80.
Molecule `CC1CCCN(CCn2c3ccccc3c3c2cc(C#N)c(=O)n3-c2ccc([N+](=O)[O-])cc2)C1` (stereo not drawn) [Compound 31] showed a pEC50 of 6.00. Against the preceding molecule, the pEC50 is 1.20 log units higher.
As for `CC(=O)N1CCN(CCCn2c3ccccc3c3c2cc(C#N)c(=O)n3-c2ccc([N+](=O)[O-])cc2)CC1` [Compound 35], the pEC50 is 5.60.
Still for that read-out and setting: next, `CC1CN(CCn2c3ccccc3c3c2cc(C#N)c(=O)n3-c2ccc([N+](=O)[O-])cc2)CC(C)O1` (stereo not drawn) [Compound 40]: 6.00.
`N#Cc1cc2oc3ccccc3c2n(-c2ccc([N+](=O)[O-])cc2)c1=O` [Compound 42, 1-(4-Nitro-phenyl)-2-oxo-1,2-dihydro-benzo[4,5]furo[3,2-b]pyridine-3-carbonitrile] gave a pEC50 of 6.10.
